Active and inactive are the calls of the source.
Columns and labels:
[1] = molecular target: T1, Ubiquitin-conjugating enzyme E2 N (Homo sapiens, UniProt P61088); format: functional;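 further: Dose-response confirmation in a TR-FRET assay detecting UBC13-driven polyubiquitin chain formation, inhibition measured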
T1 sequence (P61088 whole entry): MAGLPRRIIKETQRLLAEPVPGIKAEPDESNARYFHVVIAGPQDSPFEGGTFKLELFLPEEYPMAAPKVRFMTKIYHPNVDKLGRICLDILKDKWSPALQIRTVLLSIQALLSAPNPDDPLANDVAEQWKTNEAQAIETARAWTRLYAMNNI

CAAX prenyl protease 2 = molecular target: T2, CAAX prenyl protease 2 (Homo sapiens, UniProt Q9Y256); assay: inhibition of Ras-converting CAAX protease Rce1 – biochemical, yeast membranes, quenched-peptide fluorescence, cherry-pick, dose response (AID 588849)
T2 sequence (Q9Y256 whole entry): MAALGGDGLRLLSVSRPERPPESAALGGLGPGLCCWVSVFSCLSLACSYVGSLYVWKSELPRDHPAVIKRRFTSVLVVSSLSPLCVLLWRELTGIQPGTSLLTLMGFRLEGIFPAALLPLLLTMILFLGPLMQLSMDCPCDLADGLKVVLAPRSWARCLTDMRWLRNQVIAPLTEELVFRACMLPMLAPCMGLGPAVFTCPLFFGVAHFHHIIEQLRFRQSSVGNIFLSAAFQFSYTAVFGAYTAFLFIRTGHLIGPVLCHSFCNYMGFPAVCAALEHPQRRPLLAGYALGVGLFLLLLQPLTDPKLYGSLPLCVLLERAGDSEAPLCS

[2] = molecular target: DNA repair protein RAD52 homolog (Homo sapiens, UniProt P43351); format: functional, biochemical
[3] = Trypanosoma cruzi growth suppression in host cells – NIH3T3 host cells, beta-gal luminescence, confirmation (AID 2044); format: functional, cell-based;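 further: intracellular parasites grown in NIH/3T3 mouse fibroblasts as host cells; luminescent beta-galactosidase reporter signal from transgenic T. cruzi replicating inside host cells; inhibitors lower the luminescence signal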
[4] = NIH3T3 cell viability loss – ATP luminescence, mouse fibroblasts, counter-screen, dose response (AID 2010); format: functional, cell-based;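 further: cells exposed to compound for about 90 hours before reading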
Trypsin = Trypsin (Sus scrofa, UniProt P00761); assay: trypsin protease activity blockade – biochemical, quenched peptide fluorescence, cherry-pick, selectivity assay for Rce1 protease inhibitor project, dose response (AID 488789)
[5] = molecular target: DNA repair and recombination protein RAD54-like (Homo sapiens, UniProt Q92698); assay: RAD54 Holliday junction migration blockers – biochemical, fluorescence, cherry-picked samples, dose series, confirmation (AID 651657); format: functional
[6] = viability loss in HepG2 hepatoma cells – cell-based, ATP luminescence, cherry-pick, activator set 2, cytotoxicity control, dose response (AID 1053143); format: functional
[7] = HGIII-sPLA2 enzyme inhibition potency – biochemical, QFRET, IC50, dose response (AID 743457);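 further: green fluorescence rise as the enzyme cleaves BODIPY PC-A2 in liposomes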
[8] = molecular target: T3, High affinity choline transporter 1 (Homo sapiens, UniProt Q9GZV3); assay: human choline transporter blockers, potency – cell-based, 5-point CRC, membrane potential dye, dose response (AID 504840); format: functional
T3 sequence (Q9GZV3 whole entry): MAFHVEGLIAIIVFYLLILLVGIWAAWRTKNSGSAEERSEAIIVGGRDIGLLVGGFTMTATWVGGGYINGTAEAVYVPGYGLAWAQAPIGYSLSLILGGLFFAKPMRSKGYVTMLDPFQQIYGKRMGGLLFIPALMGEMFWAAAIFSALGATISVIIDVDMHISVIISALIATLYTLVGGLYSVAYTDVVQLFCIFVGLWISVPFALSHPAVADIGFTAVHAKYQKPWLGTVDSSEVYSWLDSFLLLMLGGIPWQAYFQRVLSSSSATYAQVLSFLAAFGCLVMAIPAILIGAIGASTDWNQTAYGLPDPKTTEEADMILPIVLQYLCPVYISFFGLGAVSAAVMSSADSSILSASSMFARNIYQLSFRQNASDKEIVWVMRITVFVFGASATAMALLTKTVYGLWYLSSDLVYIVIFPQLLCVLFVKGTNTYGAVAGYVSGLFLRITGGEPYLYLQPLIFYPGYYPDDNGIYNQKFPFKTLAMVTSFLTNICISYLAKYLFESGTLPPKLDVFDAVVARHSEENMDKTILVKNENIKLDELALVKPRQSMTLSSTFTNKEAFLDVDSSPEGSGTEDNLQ

[9] = T. cruzi growth inhibition in host cells, dose response, cell-based, plate reader, dry powder, set 2 (AID 652275); format: functional
[10] = molecular target: Protein disulfide-isomerase (Homo sapiens, UniProt P07237); assay: inhibition of PDI-mediated insulin reduction – biochemical, turbidity, dry powder samples, set 2, confirmation (AID 652146)
Protein Wnt-3a = Protein Wnt-3a (Mus musculus, UniProt P27467); assay: SAR analysis of small molecule antagonists of Gli-SUFU in a Wnt3a luminescent reporter assay.; format: functional
[11] = molecular target: FAD-linked sulfhydryl oxidase ALR (Homo sapiens, UniProt P55789); assay: ALR-catalysed DTT oxidation blockers – biochemical, H2O2 detection, luminescence, cherry-pick, dose response (AID 493248)
[12] = molecular target: T4, Oxysterols receptor LXR-beta (Homo sapiens, UniProt P55055); format: functional, cell-based;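 further: agonist activity at LXR measured by a cell-based luminescence readout across a dose range, run as a counterscreen for daf-12 agonists; HEK293 cells with Gal4-LXR fusion and GAL4-driven luciferase reporter; potency for activation of Gal4-LXR reporter so compounds are agonists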
T4 sequence (P55055 whole entry): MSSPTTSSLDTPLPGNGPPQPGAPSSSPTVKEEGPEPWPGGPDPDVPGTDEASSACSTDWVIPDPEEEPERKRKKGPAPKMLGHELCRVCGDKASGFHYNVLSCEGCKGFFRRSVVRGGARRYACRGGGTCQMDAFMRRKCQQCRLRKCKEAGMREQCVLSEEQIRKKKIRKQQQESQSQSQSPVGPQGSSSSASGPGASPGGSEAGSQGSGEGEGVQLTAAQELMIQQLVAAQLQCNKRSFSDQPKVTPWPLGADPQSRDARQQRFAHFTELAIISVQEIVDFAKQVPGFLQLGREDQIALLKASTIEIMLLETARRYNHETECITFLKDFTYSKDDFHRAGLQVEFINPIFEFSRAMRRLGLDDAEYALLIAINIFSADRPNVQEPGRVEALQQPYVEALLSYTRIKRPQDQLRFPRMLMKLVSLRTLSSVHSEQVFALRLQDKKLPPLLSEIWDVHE

Sequence of Protein Wnt-3a (P27467 whole entry): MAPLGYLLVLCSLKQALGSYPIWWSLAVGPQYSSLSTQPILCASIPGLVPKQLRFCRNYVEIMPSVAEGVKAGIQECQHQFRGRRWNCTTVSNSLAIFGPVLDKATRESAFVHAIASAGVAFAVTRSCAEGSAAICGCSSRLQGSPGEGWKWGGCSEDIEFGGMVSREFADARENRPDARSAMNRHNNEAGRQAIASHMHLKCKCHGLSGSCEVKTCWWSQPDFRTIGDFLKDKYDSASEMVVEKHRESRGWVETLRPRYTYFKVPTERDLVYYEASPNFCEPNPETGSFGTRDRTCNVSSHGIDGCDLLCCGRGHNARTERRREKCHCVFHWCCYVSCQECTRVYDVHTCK
Sequence of DNA repair protein RAD52 homolog (P43351 whole entry): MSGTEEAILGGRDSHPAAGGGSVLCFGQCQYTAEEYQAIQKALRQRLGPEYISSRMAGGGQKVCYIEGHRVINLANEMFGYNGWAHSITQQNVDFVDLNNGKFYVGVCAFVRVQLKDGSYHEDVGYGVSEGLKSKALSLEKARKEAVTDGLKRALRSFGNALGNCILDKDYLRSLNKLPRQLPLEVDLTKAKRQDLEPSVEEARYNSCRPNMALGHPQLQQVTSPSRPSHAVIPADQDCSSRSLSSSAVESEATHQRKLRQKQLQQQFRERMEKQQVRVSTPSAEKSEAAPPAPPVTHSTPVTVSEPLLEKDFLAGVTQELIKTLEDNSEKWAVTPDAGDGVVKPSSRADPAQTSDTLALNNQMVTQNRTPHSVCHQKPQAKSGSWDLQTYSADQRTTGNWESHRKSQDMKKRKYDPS
Sequence of FAD-linked sulfhydryl oxidase ALR (P55789 whole entry, the tested form may be a part): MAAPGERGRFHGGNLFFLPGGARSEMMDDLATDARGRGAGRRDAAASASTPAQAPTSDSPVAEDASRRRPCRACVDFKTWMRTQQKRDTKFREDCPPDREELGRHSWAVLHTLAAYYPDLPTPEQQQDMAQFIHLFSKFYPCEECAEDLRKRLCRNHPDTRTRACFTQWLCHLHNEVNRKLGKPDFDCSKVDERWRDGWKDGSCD
Sequence of Protein disulfide-isomerase (P07237 whole entry): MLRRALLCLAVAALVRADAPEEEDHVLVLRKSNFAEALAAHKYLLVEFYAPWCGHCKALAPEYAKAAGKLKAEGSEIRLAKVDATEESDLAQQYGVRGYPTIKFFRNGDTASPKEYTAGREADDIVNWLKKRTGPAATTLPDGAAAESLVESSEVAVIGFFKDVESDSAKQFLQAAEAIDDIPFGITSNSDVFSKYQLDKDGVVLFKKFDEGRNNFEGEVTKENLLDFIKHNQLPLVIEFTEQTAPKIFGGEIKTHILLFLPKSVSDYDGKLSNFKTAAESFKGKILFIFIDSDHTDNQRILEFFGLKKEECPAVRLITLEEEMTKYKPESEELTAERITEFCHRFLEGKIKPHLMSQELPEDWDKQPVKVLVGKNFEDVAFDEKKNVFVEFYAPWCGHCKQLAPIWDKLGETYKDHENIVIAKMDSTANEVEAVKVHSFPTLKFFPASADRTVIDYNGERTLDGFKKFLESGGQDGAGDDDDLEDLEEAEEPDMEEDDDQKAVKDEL
Sequence of Trypsin (P00761 whole entry): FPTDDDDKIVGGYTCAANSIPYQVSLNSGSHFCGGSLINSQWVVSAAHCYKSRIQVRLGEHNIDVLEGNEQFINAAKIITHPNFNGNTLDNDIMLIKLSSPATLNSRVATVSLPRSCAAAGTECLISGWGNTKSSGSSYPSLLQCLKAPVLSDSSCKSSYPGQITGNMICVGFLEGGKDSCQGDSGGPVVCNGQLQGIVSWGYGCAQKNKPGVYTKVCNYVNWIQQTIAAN
Sequence of DNA repair and recombination protein RAD54-like (Q92698 whole entry): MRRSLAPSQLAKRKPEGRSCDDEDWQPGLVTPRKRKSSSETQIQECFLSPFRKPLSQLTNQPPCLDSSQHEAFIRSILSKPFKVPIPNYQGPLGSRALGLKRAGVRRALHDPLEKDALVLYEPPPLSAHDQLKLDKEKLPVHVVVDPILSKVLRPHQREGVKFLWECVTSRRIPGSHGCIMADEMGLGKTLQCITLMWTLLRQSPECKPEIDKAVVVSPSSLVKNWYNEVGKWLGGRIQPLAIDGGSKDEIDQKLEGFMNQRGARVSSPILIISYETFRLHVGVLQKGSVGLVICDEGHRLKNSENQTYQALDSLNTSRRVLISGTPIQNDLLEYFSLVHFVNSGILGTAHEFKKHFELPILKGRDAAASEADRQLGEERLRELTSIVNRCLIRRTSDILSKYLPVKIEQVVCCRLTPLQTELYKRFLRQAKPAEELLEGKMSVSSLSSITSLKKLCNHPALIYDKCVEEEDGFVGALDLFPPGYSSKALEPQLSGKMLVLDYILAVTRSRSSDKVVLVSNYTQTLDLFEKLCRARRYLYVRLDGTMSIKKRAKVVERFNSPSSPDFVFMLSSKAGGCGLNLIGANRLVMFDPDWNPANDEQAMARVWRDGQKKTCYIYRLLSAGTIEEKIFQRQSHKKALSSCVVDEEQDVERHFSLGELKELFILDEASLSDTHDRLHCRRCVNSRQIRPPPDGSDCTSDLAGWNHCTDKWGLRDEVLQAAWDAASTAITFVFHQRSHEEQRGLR

## CCOC(=O)c1c(-c2ccccc2)oc2ccc(OCC(O)CNCCN(C)C)cc12 (stereo not drawn)
[1]
  IC50: > 20 µM (inactive)
CAAX prenyl protease 2
  AC50: 11.8 µM (active)
[2]
  AC50: 5 µM (active)
[3]
  EC50: 1.79 µM (active)
[4]
  EC50: 5.42 µM (active)
Trypsin
  AC50: 10.3 µM (active)

## CN(C)CCCN(C(=O)c1ccc([N+](=O)[O-])o1)c1nc2cc3c(cc2s1)OCO3
[5]
  AC50: 24.6 µM (active)
[2]
  AC50: 10.5 µM (active)

## Cc1ncoc1C(=O)Nc1ncc([N+](=O)[O-])s1
[6]
  AC50: 26 µM (active)

## O=C(NN=C(S)Nc1ccc(F)cc1)C1CC1c1ccc(Cl)cc1 (stereo not drawn)
[7]
  IC50: > 122 µM (inactive)
[8]
  IC50: 13.2 µM (active)

## O=C(c1ccc(F)cc1)N1CCCCN2[C@@H](CO)[C@H](c3ccc(-c4ccccc4)cc3)[C@@H]2C1
[9]
  AC50: 2.56 µM (active)

## CC(C)N1CC2(CN(Cc3ccc(-c4cccnc4)cc3)C2)Oc2c(NC(=O)c3ccncc3)cccc2C1=O
[9]
  AC50: 0.179 µM (active)

## O=C(NC1CCCC1)C1(CCOc2ccccc2)CCN(Cc2ccc(O)c(Cl)c2)CC1
[10]
  AC50: 5 µM (active)

## CCN(CC)c1cc(NC(=O)c2ccccc2)ncn1
Protein Wnt-3a
  IC50: > 21.8 µM (inactive)

## CCN(CC)c1cc(NC(=O)c2cc(OC)cc(OC)c2)ncn1
Protein Wnt-3a
  IC50: > 21.8 µM (inactive)

## Cc1nn(-c2ccccc2)c(Cl)c1/C=N/Nc1ccc(Cl)c(C(=O)O)c1
[11]
  AC50: 0.907 µM (active)
[12]
  EC50: > 67.5 µM (inactive)
